Test results reported in patent EP4667466A1, “PROTAC DEGRADERS OF MLLT1 AND/OR MLLT3” (priority 2024, dated 2025).

Target: T1, MLLT1 (Homo sapiens, UniProt Q03111)
T1 construct: endogenous in cells; host or cells: MV4-11 (ATCC CRL-9591)
T1 sequence (Q03111 1-559): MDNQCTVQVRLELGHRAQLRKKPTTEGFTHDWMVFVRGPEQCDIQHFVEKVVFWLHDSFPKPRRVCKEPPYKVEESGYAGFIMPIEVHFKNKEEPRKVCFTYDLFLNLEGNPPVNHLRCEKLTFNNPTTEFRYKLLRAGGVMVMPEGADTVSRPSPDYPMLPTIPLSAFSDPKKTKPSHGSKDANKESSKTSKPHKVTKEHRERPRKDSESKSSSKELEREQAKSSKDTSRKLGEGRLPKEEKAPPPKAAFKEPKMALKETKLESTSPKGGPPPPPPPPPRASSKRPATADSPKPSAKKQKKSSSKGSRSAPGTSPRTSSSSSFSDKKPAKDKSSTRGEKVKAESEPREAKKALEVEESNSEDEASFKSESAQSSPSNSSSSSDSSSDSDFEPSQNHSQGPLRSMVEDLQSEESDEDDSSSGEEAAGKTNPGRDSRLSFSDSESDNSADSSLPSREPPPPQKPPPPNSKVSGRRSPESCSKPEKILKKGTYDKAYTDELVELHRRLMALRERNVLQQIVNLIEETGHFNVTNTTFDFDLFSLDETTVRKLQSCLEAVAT
Experiment: MLLT1 degradation assay (JESS automated chemiluminescent detection) in MV4-11 cells
Type: cell-based
Conditions: 24h, with respect to DMSO control
Description: MLLT1 degradation efficacy of compounds was tested in an automated chemiluminescent detection system (JESS, Cat# 004-650). MV4-11 (#CRL-9591, ATCC) cells were seeded at a density of 1.2 million cells/well in a non-treated 6-well cell culture plate in 2.4 mL of complete medium (IMDM + 10% FBS + 1X Penicillin-Streptomycin). 10 mM DMSO stocks were prepared, and cells were treated with three concentrations of test compounds viz. 1000, 100 and 10 nM at a final DMSO concentration of 0.1% and incubated for 24h at 37°C, 5% CO2. Post incubation, cells were centrifuged, washed with HBSS and lysed in 70 uL of RIPA buffer supplemented with Protease inhibitors (sc-24948; Santa Cruz). Subsequently, protein estimation was done using BCA protein assay kit (23225; Pierce). 4 ug protein lysate (4 uL of 1ug/uL lysate) was loaded into each well of the JESS cartridge (SM-WO01; Bio-techne) and the JESS run was performed using 1:900 dilution of anti-human MLLT1 antibody (14893; Cell signaling technology) and 1:1200 dilution of anti-human GAPDH antibody (2118; Cell signaling technology) with anti-rabbit secondary detection module (DM-001; Bio-Techne). Post run, data were analysed using "Compass for SW" software for chemiluminescent detection. The peak area for each band was used for the calculation of MLLT1 degradation with respect to DMSO control. Data is shown as "MLLT1 % degradation". Category A: A ≥ 75% degradation Category B: 50% ≤ B < 75% degradation Category C: 25% ≤ C < 50% degradation Category D: D < 25% degradation Table 1

| inhibition at 0.01 µM | inhibition at 0.1 µM | inhibition at 1 µM | SMILES |
| --- | --- | --- | --- |
| ≥ 75% | ≥ 75% | ≥ 75% | Cc1nn(CCCCCCCC=C(Cl)c2ccc3c(c2)n(C)c(=O)n3C2CCC(=O)NC2=O)c2cc(C(=O)Nc3cc4[nH]c([C@H]5CCCN5C)cc4cn3)ccc12 (mixture of isomers) [Example 40] |
| 50 to 75% | ≥ 75% | ≥ 75% | Cc1nn(CCCCCCCCNc2cccc3c2C(=O)N(C2CCC(=O)NC2=O)C3=O)c2cc(C(=O)Nc3cc4[nH]c(C5CCCN5C)cc4cn3)ccc12 (racemic) [Example 2, rac-1-(8-{[2-(2,6-dioxopiperidin-3-yl)-1,3-dioxoisoindol-4-yl]amino}octyl)-3-methyl-N-[2-(1-methylpyrrolidin-2-yl)-1H-pyrrolo[3,2-c]pyridin-6-yl]indazole-6-carboxamide] |
| ≥ 75% | ≥ 75% | ≥ 75% | Cc1nn(CCCCCCCC#Cc2cccc3c2CN(C2CCC(=O)NC2=O)C3=O)c2cc(C(=O)Nc3cc4[nH]c([C@H]5CC6(CC6)CN5C)cc4cn3)ccc12 (stereo in doubt) [Example 56, 1-(9-(2-(2,6-dioxopiperidin-3-yl)-1-oxoisoindolin-4-yl)non-8-yn-1-yl)-3-methyl-N-(2-((rel-R)-5-methyl-5-azaspiro[2.4]heptan-6-yl)-1H-pyrrolo[3,2-c]pyridin-6-yl)-1H-indazole-6-carboxamide] |
| 50 to 75% | ≥ 75% | ≥ 75% | Cc1nn(CCCCCCCCNc2cccc3c2C(=O)N(C2CCC(=O)NC2=O)C3=O)c2cc(C(=O)Nc3cc4[nH]c([C@H]5CCCN5C)cc4cn3)ccc12 (stereo partly drawn) [Example 3, 1-(8-{[2-(2,6-dioxopiperidin-3-yl)-1,3-dioxoisoindol-4-yl]amino}octyl)-3-methyl-N-{2-[(2R)-1-methylpyrrolidin-2-yl]-1H-pyrrolo[3,2-c]pyridin-6-yl}indazole-6-carboxamide] |
| < 25% | < 25% | 50 to 75% | Cc1nn(CCCCCCCCNc2cccc3c2C(=O)N(C2CCC(=O)NC2=O)C3=O)c2cc(C(=O)Nc3cc4[nH]c([C@@H]5CCCN5C)cc4cn3)ccc12 (stereo partly drawn) [Example 4, 1-(8-{[2-(2,6-dioxopiperidin-3-yl)-1,3-dioxoisoindol-4-yl]amino}octyl)-3-methyl-N-{2-[(2S)-1-methylpyrrolidin-2-yl]-1H-pyrrolo [3,2-c]pyridin-6-yl}indazole-6-carboxamide] |
| 50 to 75% | 50 to 75% | 25 to 50% | Cc1c2ccc(C(=O)Nc3cc4[nH]c([C@H]5CCCN5C)cc4cn3)cc2nn1CCCCCCCCNc1cccc2c1C(=O)N(C1CCC(=O)NC1=O)C2=O (stereo partly drawn) [Example 5, 2-(8-((2-(2,6-dioxopiperidin-3-yl)-1,3-dioxoisoindolin-4-yl)amino)octyl)-3-methyl-N-(2-((R)-1-methylpyrrolidin-2-yl)-1H-pyrrolo[3,2-c]pyridin-6-yl)-2H-indazole-6-carboxamide] |
| 25 to 50% | 50 to 75% | ≥ 75% | CN1CCC[C@@H]1c1cc2cnc(NC(=O)c3ccc4c(c3)c(N3CCC(CN5CCN(c6cc7c(cc6F)C(=O)N(C6CCC(=O)NC6=O)C7=O)CC5)CC3)nn4C)cc2[nH]1 (stereo partly drawn) [Example 6, 3-[4-({4-[2-(2,6-dioxopiperidin-3-yl)-6-fluoro-1,3-dioxoisoindol-5-yl]piperazin-1-yl}methyl)piperidin-1-yl]-1-methyl-N-{2-[(2R)-1-methylpyrrolidin-2-yl]-1H-pyrrolo[3,2-c]pyridin-6-yl}indazole-5-carboxamide] |
| < 25% | 25 to 50% | ≥ 75% | Cc1c(OCCCCCCCCn2nc(C)c3ccc(C(=O)Nc4cc5[nH]c([C@H]6CCCN6C)cc5cn4)cc32)cccc1N1CCC(=O)NC1=O [Example 9, 1-{8-[3-(2,4-dioxo-1,3-diazinan-1-yl)-2-methylphenoxy]octyl}-3-methyl-N-{2-[(2R)-1-methylpyrrolidin-2-yl]-1H-pyrrolo[3,2-c]pyridin-6-yl}indazole-6-carboxamide] |
| 25 to 50% | 25 to 50% | 25 to 50% | Cc1c(OCCCCCCn2nc(C)c3ccc(C(=O)Nc4cc5[nH]c([C@H]6CCCN6C)cc5cn4)cc32)cccc1N1CCC(=O)NC1=O [Example 10, 1-16-[3-(2,4-dioxo-1,3-diazinan-1-yl)-2-methylphenoxy]hexyll-3-methyl-N-{2-[(2R)-1-methylpyrrolidin-2-yl]-1H-pyrrolo [3,2-c]pyridin-6-yl}indazole-6-carboxamide] |
| 50 to 75% | 50 to 75% | 50 to 75% | Cc1nn(CCCCCC#Cc2cccc3c2n(C)c(=O)n3C2CCC(=O)NC2=O)c2cc(C(=O)Nc3cc4[nH]c([C@H]5CCCN5C)cc4cn3)ccc12 (stereo partly drawn) [Example 11, 1-{7-[1-(2,6-dioxopiperidin-3-yl)-3-methyl-2-oxo-1,3-benzodiazol-4-yl]hept-6-yn-1-yl}-3-methyl-N-{2-[(2R)-1-methylpyrrolidin-2-yl]-1H-pyrrolo[3,2-c]pyridin-6-yl}indazole-6-carboxamide] |
| ≥ 75% | ≥ 75% | ≥ 75% | Cc1nn(CCCCCCCCNc2cccc3c2C(=O)N(C2CCC(=O)NC2=O)C3=O)c2cc(C(=O)Nc3cc4[nH]c([C@H]5CCCN5C)c(Cl)c4cn3)ccc12 (stereo partly drawn) [Example 18, N-(3-chloro-2-((R)-1-methylpyrrolidin-2-yl)-1H-pyrrolo[3,2-c]pyridin-6-yl)-1-(8-((2-(2,6-dioxopiperidin-3-yl)-1,3-dioxoisoindolin-4-yl)amino)octyl)-3-methyl-1H-indazole-6-carboxamide] |
| 25 to 50% | 25 to 50% | ≥ 75% | Cc1nn(CCCCN2CCN(c3ccc4c(c3)C(=O)N(C3CCC(=O)NC3=O)C4=O)CC2)c2cc(C(=O)Nc3cc4[nH]c([C@@H]5CCCN5C)cc4cn3)ccc12 (stereo partly drawn) [Example 20, 1-(4-{4-[2-(2,6-dioxopiperidin-3-yl)-1,3-dioxoisoindol-5-yl]piperazin-1-yl}butyl)-3-methyl-N-{2-[(2S)-1-methylpyrrolidin-2-yl]-1H-pyrrolo[3,2-c]pyridin-6-yl}indazole-6-carboxamide] |
| ≥ 75% | ≥ 75% | ≥ 75% | Cc1nn(CCCCCN2CCN(c3cc4c(cc3F)C(=O)N(C3CCC(=O)NC3=O)C4=O)CC2)c2cc(C(=O)Nc3cc4[nH]c([C@H]5CCCN5C)cc4cn3)ccc12 (stereo partly drawn) [Example 23, 1-(5-(4-(2-(2,6-dioxopiperidin-3-yl)-6-fluoro-1,3-dioxoisoindolin-5-yl)piperazin-1-yl)pentyl)-3-methyl-N-(2-((R)-1-methylpyrrolidin-2-yl)-1H-pyrrolo[3,2-c]pyridin-6-yl)-1H-indazole-6-carboxamide] |
| – | 50 to 75% | ≥ 75% | Cc1nn(CCOCCN2CCN(c3cc4c(cc3F)C(=O)N(C3CCC(=O)NC3=O)C4=O)CC2)c2cc(C(=O)Nc3cc4[nH]c([C@H]5CCCN5C)cc4cn3)ccc12 (stereo partly drawn) [Example 24, 1-(2-(2-(4-(2-(2,6-dioxopiperidin-3-yl)-6-fluoro-1,3-dioxoisoindolin-5-yl)piperazin-1-yl)ethoxy)ethyl)-3-methyl-N-(2-((R)-1-methylpyrrolidin-2-yl)-1H-pyrrolo[3,2-c]pyridin-6-yl)-1H-indazole-6-carboxamide] |
| ≥ 75% | ≥ 75% | ≥ 75% | Cc1nn(CCCC2CCN(c3cccc4c3C(=O)N(C3CCC(=O)NC3=O)C4=O)CC2)c2cc(C(=O)Nc3cc4[nH]c([C@H]5CCCN5C)cc4cn3)ccc12 (stereo partly drawn) [Example 27, 1-(3-(1-(2-(2,6-dioxopiperidin-3-yl)-1,3-dioxoisoindolin-4-yl)piperidin-4-yl)propyl)-3-methyl-N-(2-((R)-1-methylpyrrolidin-2-yl)-1H-pyrrolo[3,2-c]pyridin-6-yl)-1H-indazole-6-carboxamide] |
